# Laboratory results from patent US20090304674A1, “METHODS FOR TREATING DISEASE BY REGULATING CLL CELL SURVIVAL” (priority 2005, published 2009).
# “Also recorded” adds a separate entry of the source.
# Assays:
# [1] = target: T1, IKK-2 (IKKβ) (Homo sapiens, UniProt O14920); conditions: reported by Podolin and colleagues, cited from earlier work
# T1 sequence (O14920 1-756): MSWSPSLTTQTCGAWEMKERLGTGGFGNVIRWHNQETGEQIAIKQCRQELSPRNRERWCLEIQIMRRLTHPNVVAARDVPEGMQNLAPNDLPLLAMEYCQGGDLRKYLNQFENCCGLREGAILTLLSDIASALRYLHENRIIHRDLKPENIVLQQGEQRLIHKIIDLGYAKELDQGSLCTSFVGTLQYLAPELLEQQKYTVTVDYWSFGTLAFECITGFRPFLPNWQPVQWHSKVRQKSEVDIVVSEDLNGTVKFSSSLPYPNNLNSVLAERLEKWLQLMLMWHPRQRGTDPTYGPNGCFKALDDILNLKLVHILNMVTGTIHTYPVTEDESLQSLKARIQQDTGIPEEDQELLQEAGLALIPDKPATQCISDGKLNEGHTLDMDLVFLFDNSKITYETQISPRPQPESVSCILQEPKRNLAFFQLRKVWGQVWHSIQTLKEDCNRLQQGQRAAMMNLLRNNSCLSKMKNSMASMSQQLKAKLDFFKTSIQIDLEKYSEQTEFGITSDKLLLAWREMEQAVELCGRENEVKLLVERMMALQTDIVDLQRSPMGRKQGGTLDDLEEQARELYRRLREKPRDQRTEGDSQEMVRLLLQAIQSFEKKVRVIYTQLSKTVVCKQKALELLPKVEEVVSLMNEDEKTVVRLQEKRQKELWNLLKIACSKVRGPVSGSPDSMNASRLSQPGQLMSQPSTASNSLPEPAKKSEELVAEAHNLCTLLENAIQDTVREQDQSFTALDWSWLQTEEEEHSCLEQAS
# [2] = tested on: CLL cells; assay: Viability of CLL cells cultured with or without rhBAFF and inhibitors (DiOC6/PI flow cytometry); assay type: cell-based, human; conditions: UTC 10 μM, 48 hours
# Experimental: (§1) Freshly thawed CLL B cells were cultured at the concentration of 1×10^6/mL under various conditions. Determination of CLL cell viability in this study was based on the analysis of mitochondrial transmembrane potential (Δψm) using 3,3′-dehexyloxacarbocyamine iodine (DiOC6) and cell membrane permeability to PI, as described. For viability assays, 100 μl of the cell culture was collected at the indicated time points and transferred to polypropylene tubes containing 100 μl of 80 nmol/l DiOC6 (Molecular Probes) and 2 μg/ml PI in FACS buffer. The cells then were incubated at 37° C. for 15 minutes and analyzed within 30 minutes by flow cytometry using a FACSCalibur (Becton Dickinson). Fluorescence was recorded at 525 nm (FL-1) for DiOC6 and at 600 nm (FL-3) for PI.
# [3] = tested on: canonical NF-κB1 pathway in CLL B cells; assay: Immunoblot of canonical NF-κB1 pathway activation (IκBα degradation/phosphorylation, p65 nuclear translocation) in CLL B cells; assay type: cell-based, human; conditions: rhBAFF 50 ng/ml, 24 hours, UTC pre-incubated 1 hour
# Experimental: Cell lysates were prepared with RIPA buffer (10 mM Tris (pH 7.4), 150 mM NaCl, 1% Triton x 100, 1% deoxycholate, 0.1% SDS, 5 mM EDTA), containing 1 mM PMSF, 0.28 TIU/ml aprotinin, 50 μg/ml leupeptin, 1 mM benzamidine, 0.7 μg/ml pepstatin. Lysates were normalized for total protein (20 μg), subjected to SDS-PAGE (4-15% gradient gels, Bio-Rad, Hercules, Calif.) and immunoblot assay. We incubated the blots with secondary antibodies that were conjugated with horseradish peroxidase. Blots then were prepared for enhanced chemiluminescence (ECL) detection system (Amersham, Little Chalfont, Buckinghamshire, UK) and subsequent autoradiography with Super RX film (Fuji, Tokyo, Japan). The mouse mAb against APRIL (APRIL8) was from Alexis Biochemicals. The mouse mAb against inhibitor of kappa B-α (IκκBα was from Imgenex (San Diego, Calif.). The antibodies against anti-phosho-MAP kinase Erk1/2 and anti-MAP kinase Erk1/2-CT were purchased from Upstate Biotechnology. Antibodies against AKT or phospho-AKT (Ser473) were from Cell Signaling (Beverly, Mass.). Rabbit polyclonal antibodies (Mcl-1, Bcl-2, and Bax) were raised against synthetic peptides.21 Also primary antibodies included β-actin (Sigma Immunochemicals, St Louis, Mo.). Anti-p52 and anti-p65 antibodies were purchased from Upstate Biotechnology.
# For fractionation experiments, cells were collected by centrifugation and washed with PBS. The cell pellet containing 5×10^6 cells was suspended in 100 μl of hypotonic buffer (50 mM Tris (pH7.4), 5 mM EDTA, 10 mM NaCl, 0.05% NP-40, 1 mM PMSF, 10 μg/ml Aprotinin, 10 μg/ml Leupeptin, 10 μg/ml Pepstatin, 10 mM β-Glycerophosphate, 1 mM Na-Vanadate, 1 mM NaF). After 10 minutes the lysate was spun and the supernatant was collected as cytoplasmic lysates. The pellet was washed 5 times in hypotonic buffer containing 0.1% NP-40. The remaining pellet was suspended in 100 μl RIPA buffer containing protease and phosphatase inhibitors. After an appropriate amount of 3× sample buffer (200 mM Tris (pH 6.8), 30 mM EDTA, 30% Glycerol, 6% SDS) was added, the sample was boiled for 10 minutes, spun for 10 minutes and the supernatant was recovered as nucleus lysates. Anti-NF kappa B p52 and p65 were purchased from Upstate Biotechnology. Anti-SP-1 was purchased from Santa Cruz Biotechnology (Santa Cruz, Calif.).
# Cell lysates were prepared with radioimmunoprecipitation assay (RIPA) buffer (10 mM Tris [pH 7.4], 150 mM NaCl, 1% Triton X-100, 0.1% deoxycholate, 0.1% SDS, 5 mM EDTA), containing 1× complete protease inhibitor cocktail (Roche diagnostics), 1 mM sodium fluoride (NaF), and 1 mM sodium vanadate (Na3VO4). Lysates were normalized for total protein (25 μg) and subjected to SDS-PAGE (4-15% gradient gels, Bio-Rad, Hercules, Calif.) and immunoblot assay. We incubated the blots with secondary antibodies that were conjugated with horseradish peroxidase. Blots then were prepared for enhanced chemiluminescence (ECL) detection system (Amersham, Little Chalfont, United Kingdom) and subsequent autoradiography with Super RX film (Fuji, Tokyo, Japan).
# For fractionation experiments, cells were collected by centrifugation and washed with PBS. The cell pellet containing 5×10^6 cells was suspended in 100 μl of hypotonic buffer (50 mM Tris [pH7.4], 5 mM EDTA, 10 mM NaCl, 0.05% Nonidet P40 [NP-40]), containing 1× complete protease inhibitor cocktail, 1 mM NaF, and 1 mM Na3VO4. After 10 minutes, the lysate was spun and the supernatant was collected as cytoplasmic lysates. […]
# [4] = tested on: normal B cells of healthy donors; assay: Viability of isolated normal B cells of healthy donors with or without rhBAFF and UTC; assay type: cell-based, human; conditions: UTC 10 μM, 48 hours
# Experimental: CD19+ B cells of healthy donors were isolated from the buffy coat of blood samples collected from adult volunteers at the San Diego Blood Bank (San Diego, Calif.), as described.
# Isolated blood mononuclear cells of patients with CLL were incubated with saturating amounts of Dynabeads coated with anti-CD2 or anti-CD14 mAbs (Dynal A.S. Oslo, Norway). Beadbound cells were removed with a strong magnetic field. Following depletion, less than 0.5% of cells were CD2+ or CD14+, whereas more than 99% were CD19+, as assessed via flow cytometry (data not shown). Peripheral normal CD19+ B cells of healthy donors were purified from the buffy coat of blood samples using CD19 Dynabeads and Detach A Beads (Dynal), following the manufacturer's instructions.
# as §1, with “For viability assays, 100 μl of the cell culture was collected at the indicated time points and transferred to polypropylene tubes containing 100 μl of 80 nmol/l DiOC6 (Molecular Probes) and 2 μg/ml PI in FACS buffer.” left out
compound,measurement,setting,value
"NC(=O)Nc1sc(-c2ccc(F)cc2)cc1C(N)=O [UTC, 5-(4-fluorophenyl)-2-ureido-thiophene-3 carboxylic acid amide]",selectivity for IKK-2 versus the other ten kinases,"[1]; p38α, p38β, p38γ, p38δ, MAPKAPK2, MKK1, MAPK2, COX-1, COX-2, JNK1",more than 550 fold
same,selectivity for IKK-2 versus IKK-1,[1],22 fold
same,selectivity for IKK-2 versus JNK3,[1],200 fold
same,viability of CLL cells versus medium alone,[2]; 8 patients,significantly lower than that of CLL cells cultured with medium alone
same,effect on rhBAFF-enhanced survival/viability of CLL cells,"[2]; rhBAFF 50 ng/ml, anti-BR3 or BR3-Fc 10 μg/ml",significantly inhibited the capacity of rhBAFF to support CLL cell survival
same,inhibition of BAFF-induced translocation of p65 to the nucleus,[3]; anti-BR3 10 μg/ml,inhibited BAFF induced nuclear translocation of p65
same,inhibition of rhBAFF-induced phosphorylation of IκBα,[3]; anti-BR3 or BR3-Fc 10 μg/ml,inhibited phosphorylation of IκBα
same,survival/viability of isolated normal B cells cultured without rhBAFF,[4]; 8 donors,did not have any effect on survival of isolated normal B cells; also recorded: no significant difference
same,effect on pro-survival effect of exogenous rhBAFF on normal B cells,[4]; rhBAFF 50 ng/ml,could partially block the pro-survival effect of exogenous rhBAFF
